Measurements: article PMC7180638, “Synthesis of Pyrrolidine Monocyclic Analogues of Pochonicine and Its Stereoisomers: Pursuit of Simplified Structures and Potent β-N-Acetylhexosaminidase Inhibition” (Molecules, 2020)
Where a name gives a salt, the structure may show the parent alone. Read-outs that look alike come from different tables or passages of the source.

Legend:
Assay type in all cases: biochemical
[1] = molecular target: β-N-Acetylhexosaminidase (HL60); assay: β-N-Acetylhexosaminidase (HL60) inhibition; settings: for IC50: β-N-Acetylhexosaminidase (β-GlcNAcase); for Inhibition % at 1000 μM: β-N-Acetylhexosaminidase
Procedure: (§1) With rat intestinal maltase as an exception, other enzymes were purchased from Sigma-Aldrich Chemical Co. (St. Louis, MO, USA). Brush border membranes prepared from rat small intestine according to the method of Kessler et al. were assayed at pH 6.8 for rat intestinal maltase using maltose. The released D-glucose was determined colorimetrically using the Glucose CII-test Wako (Wako Pure Chemical Ind.; Osaka, Japan). Other glycosidase activities were determined using an appropriate p-nitrophenyl glycoside as substrate in a buffer solution at the optimal pH value of each enzyme. The reaction was stopped by adding 400 mM Na2CO3. The released p-nitrophenol was measured spectrometrically at 400 nm.

[2] = molecular target: T1, β-Galactosidase (Bovine liver) (Bos taurus, UniProt F1MNT6); assay: β-Galactosidase (bovine liver) inhibition
T1 sequence (F1MNT6 1-469): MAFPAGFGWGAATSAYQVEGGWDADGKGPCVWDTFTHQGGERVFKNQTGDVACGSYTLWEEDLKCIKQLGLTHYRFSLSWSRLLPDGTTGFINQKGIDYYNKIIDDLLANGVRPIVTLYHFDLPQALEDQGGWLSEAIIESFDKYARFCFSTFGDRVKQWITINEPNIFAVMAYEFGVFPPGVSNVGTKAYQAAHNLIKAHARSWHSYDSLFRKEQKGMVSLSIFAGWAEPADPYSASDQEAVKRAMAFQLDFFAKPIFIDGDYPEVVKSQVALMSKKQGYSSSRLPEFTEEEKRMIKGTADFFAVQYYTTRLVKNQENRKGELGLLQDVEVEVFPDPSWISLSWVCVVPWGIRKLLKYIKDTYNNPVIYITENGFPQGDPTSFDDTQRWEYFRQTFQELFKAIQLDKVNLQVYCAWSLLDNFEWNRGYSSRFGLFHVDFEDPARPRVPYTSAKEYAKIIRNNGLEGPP
Procedure: as §1

Rat intestinal maltase = Rat intestinal maltase inhibition; settings: α-Glucosidase
Procedure: as §1

β-Mannosidase (Snail) = assay: β-Mannosidase (snail) inhibition
Procedure: as §1

[3] = molecular target: T2, α-Mannosidase (Jack bean) (Canavalia ensiformis, UniProt C0HJB3); assay: α-Mannosidase (Jack bean) inhibition
T2 construct: purchased Sigma-Aldrich Chemical Co
T2 sequence (C0HJB3 1-981): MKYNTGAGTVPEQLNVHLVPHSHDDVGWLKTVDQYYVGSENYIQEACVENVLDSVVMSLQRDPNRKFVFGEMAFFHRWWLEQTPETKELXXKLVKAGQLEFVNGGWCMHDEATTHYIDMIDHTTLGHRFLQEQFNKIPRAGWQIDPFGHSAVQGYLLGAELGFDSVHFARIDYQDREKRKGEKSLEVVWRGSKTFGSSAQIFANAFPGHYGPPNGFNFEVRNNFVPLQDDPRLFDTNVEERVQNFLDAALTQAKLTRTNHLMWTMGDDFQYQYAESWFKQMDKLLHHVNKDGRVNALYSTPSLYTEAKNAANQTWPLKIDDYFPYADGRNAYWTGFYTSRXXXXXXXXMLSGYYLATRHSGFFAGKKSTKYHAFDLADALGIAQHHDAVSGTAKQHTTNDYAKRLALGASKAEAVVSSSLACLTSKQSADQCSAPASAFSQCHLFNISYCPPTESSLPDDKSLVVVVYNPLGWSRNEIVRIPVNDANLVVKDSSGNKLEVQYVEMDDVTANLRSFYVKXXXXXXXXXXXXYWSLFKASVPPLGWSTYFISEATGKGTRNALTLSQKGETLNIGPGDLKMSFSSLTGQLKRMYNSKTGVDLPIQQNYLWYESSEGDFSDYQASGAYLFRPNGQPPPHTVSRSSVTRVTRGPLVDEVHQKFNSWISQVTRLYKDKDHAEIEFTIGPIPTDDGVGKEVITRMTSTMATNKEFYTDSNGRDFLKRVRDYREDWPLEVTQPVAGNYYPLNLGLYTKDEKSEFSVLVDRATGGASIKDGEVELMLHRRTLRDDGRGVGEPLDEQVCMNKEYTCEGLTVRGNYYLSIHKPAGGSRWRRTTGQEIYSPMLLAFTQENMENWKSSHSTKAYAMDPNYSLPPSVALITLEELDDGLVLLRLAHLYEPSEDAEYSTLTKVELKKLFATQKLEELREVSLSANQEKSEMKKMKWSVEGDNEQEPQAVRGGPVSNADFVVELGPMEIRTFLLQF
Procedure: as §1

[4] = molecular target: T3, α-N-Acetylgalactosaminidase (Chicken liver) (Gallus gallus, UniProt Q90744); assay: α-N-Acetylgalactosaminidase (chicken liver) inhibition
T3 construct: purchased Sigma-Aldrich Chemical Co; host or cells: chicken liver
T3 sequence (Q90744 1-405): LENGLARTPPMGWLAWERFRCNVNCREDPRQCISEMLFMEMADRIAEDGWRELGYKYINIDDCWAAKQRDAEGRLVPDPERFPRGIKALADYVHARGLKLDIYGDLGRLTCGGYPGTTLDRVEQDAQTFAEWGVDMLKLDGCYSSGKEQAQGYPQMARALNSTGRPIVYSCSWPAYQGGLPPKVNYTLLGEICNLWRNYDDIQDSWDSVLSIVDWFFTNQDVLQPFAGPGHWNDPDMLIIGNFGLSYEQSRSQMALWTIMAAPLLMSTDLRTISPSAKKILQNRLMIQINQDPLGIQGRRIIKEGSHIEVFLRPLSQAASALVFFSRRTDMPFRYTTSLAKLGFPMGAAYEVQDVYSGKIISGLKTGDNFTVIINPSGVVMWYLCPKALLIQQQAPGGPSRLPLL
Procedure: as §1

[5] = molecular target: β-Glucosidase (Bovine liver); assay: β-Glucosidase (bovine liver) inhibition
Procedure: as §1

α-Glucosidase (Rice) = molecular target: T4, α-Glucosidase (Rice) (Oryza sativa subsp. japonica, UniProt Q653V7); assay: α-Glucosidase (rice) inhibition
T4 construct: purchased Sigma-Aldrich Chemical Co
T4 sequence (Q653V7 34-885): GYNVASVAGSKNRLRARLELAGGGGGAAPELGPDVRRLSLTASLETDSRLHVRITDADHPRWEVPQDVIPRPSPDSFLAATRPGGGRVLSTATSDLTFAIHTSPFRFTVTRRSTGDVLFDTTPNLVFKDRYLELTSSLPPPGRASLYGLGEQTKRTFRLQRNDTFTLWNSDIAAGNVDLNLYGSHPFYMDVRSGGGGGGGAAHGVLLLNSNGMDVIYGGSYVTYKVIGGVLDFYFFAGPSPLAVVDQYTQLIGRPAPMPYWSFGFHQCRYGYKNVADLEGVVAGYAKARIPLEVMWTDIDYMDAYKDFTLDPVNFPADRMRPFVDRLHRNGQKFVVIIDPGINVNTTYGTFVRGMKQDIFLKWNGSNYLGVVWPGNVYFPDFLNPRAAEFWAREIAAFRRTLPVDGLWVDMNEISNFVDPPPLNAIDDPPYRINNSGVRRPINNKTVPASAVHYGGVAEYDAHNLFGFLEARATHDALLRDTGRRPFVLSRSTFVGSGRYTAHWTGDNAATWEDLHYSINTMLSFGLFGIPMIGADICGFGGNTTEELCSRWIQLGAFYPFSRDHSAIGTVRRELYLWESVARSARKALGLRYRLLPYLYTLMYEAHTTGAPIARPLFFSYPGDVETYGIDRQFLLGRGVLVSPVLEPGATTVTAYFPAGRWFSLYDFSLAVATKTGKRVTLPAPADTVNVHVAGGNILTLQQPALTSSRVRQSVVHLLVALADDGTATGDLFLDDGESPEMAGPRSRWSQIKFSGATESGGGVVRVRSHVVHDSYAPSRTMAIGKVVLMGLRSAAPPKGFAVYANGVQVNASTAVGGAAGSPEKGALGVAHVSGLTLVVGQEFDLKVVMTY
Procedure: as §1

[6] = 1000 μM, read-out: Inhibition % at 1000 μM

| Compound | IC50 [1] | Inhibition % at 1000 μM [1] [%] | inhibition at 1000 µM [2, 6] [%] | inhibition at 1000 µM ([2]; read-out: IC50) [%] | IC50 (Rat intestinal maltase) | Inhibition % at 1000 μM (Rat intestinal maltase) [%] | IC50 (β-Mannosidase (Snail)) | Inhibition % at 1000 μM (β-Mannosidase (Snail)) [%] | inhibition at 1000 µM [3, 6] [%] | inhibition at 1000 µM ([3]; read-out: IC50) [%] | inhibition at 1000 µM [4, 6] [%] | inhibition at 1000 µM ([4]; read-out: IC50) [%] | IC50 [5] | Inhibition % at 1000 μM [5] [%] | inhibition at 1000 µM (α-Glucosidase (Rice); [6]) [%] | inhibition at 1000 µM (α-Glucosidase (Rice); read-out: IC50) [%] |
| --- | --- | --- | --- | --- | --- | --- | --- | --- | --- | --- | --- | --- | --- | --- | --- | --- |
| CC(=O)NC[C@@H]1N[C@@H](CO)[C@@H](O)[C@@H]1O [E-10b, 1-N-acetylamino-2,5-imino-1,2,5-trideoxy-L-iditol hydrochloride] | NI (No Inhibition (less than 50% at 1000 μM)) | 4.5 | 3.9 | < 50 | NI (No Inhibition (less than 50% at 1000 μM)) | 0 | NI (No Inhibition (less than 50% at 1000 μM)) | 0 | 3.8 | < 50 | 0.5 | < 50 | NI (No Inhibition (less than 50% at 1000 μM)) | 0 | 0 | < 50 |
| CC(=O)NC[C@@H]1N[C@H](CO)[C@H](O)[C@H]1O [F-10a, 1-N-acetylamino-2,5-imino-1,2,5-trideoxy-L-glucitol hydrochloride] | NI (No Inhibition (less than 50% at 1000 μM)) | 0 | 4.2 | < 50 | NI (No Inhibition (less than 50% at 1000 μM)) | 14.6 | NI (No Inhibition (less than 50% at 1000 μM)) | 3.23 | 0 | < 50 | 0 | < 50 | NI (No Inhibition (less than 50% at 1000 μM)) | 0.3 | 12.5 | < 50 |
| CC(=O)NC[C@H]1N[C@H](CO)[C@H](O)[C@H]1O [F-10b, 1-N-acetylamino-2,5-imino-1,2,5-trideoxy-D-iditol hydrochloride] | NI (No Inhibition (less than 50% at 1000 μM)) | 16.6 | 4.2 | < 50 | NI (No Inhibition (less than 50% at 1000 μM)) | 12.7 | NI (No Inhibition (less than 50% at 1000 μM)) | 0 | 1.6 | < 50 | 2.3 | < 50 | NI (No Inhibition (less than 50% at 1000 μM)) | 0 | 0 | < 50 |
| CC(=O)NC[C@H]1N[C@@H](CO)[C@H](O)[C@@H]1O [G-10, 1-N-acetylamino-2,5-imino-1,2,5-trideoxy-D-allitol hydrochloride] | NI (No Inhibition (less than 50% at 1000 μM)) | 18.8 | 2.9 | < 50 | NI (No Inhibition (less than 50% at 1000 μM)) | 16.0 | NI (No Inhibition (less than 50% at 1000 μM)) | 0 | 4 | < 50 | 2.3 | < 50 | NI (No Inhibition (less than 50% at 1000 μM)) | 0 | 0 | < 50 |
| CC(=O)NC[C@@H]1N[C@H](CO)[C@@H](O)[C@H]1O [H-10, 1-N-acetylamino-2,5-imino-1,2,5-trideoxy-L-allitol hydrochloride] | NI (No Inhibition (less than 50% at 1000 μM)) | 0.3 | 3.6 | < 50 | NI (No Inhibition (less than 50% at 1000 μM)) | 13.6 | NI (No Inhibition (less than 50% at 1000 μM)) | 0 | 9.5 | < 50 | 6.1 | < 50 | NI (No Inhibition (less than 50% at 1000 μM)) | 1.7 | 5.6 | < 50 |
